The results in this text go back to patent US10988477B2 (Merck Patent GmbH, priority 2018, dated 2021).

In assay [1] the target is intracellular GCN2 (phosphorylation of the GCN2 substrate eIF2α) (Homo sapiens, UniProt Q9P2K8). Description: GCN2 cellular inhibition assay (AlphaScreen SureFire P-eIF2α Ser51, borrelidin-treated U2OS cells). The assay is classed as cell-based. Particulars: compounds of Formula IV; biomarker assay, phosphorylated eIF2α Ser51 in borrelidin-treated U2OS cells. The gist of the method:
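Compound effect on GCN2 is gauged by eIF2α Ser51 phosphorylation in borrelidin-challenged U2OS cells (10 μM, 1 h). Top compound level is 40 μM final.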
Background: Bead proximity is the source of the signal in Alpha formats.

In a further assay the target is GCN2 kinase (Homo sapiens, UniProt Q9P2K8). The assay can be described thus: GCN2 enzyme inhibition assay (Transcreener ADP2 fluorescence polarization). It counts as biochemical. Particulars: Enzyme activity for compounds of Formula IV; Ki(app), 280 μM ATP, 25° C. The gist of the method: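 Kinase activity is followed as ADP formation, measured by fluorescence polarization, using 4 nM enzyme with 280 μM ATP and 200 μM (RS)7 peptide at pH 7.5 and 25 °C for 1 h. Values come from a non-linear tight-binding fit.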
Background: Fluorescence polarisation rises when a labelled molecule tumbles more slowly, as on binding a larger partner.

Sequence of intracellular GCN2 (phosphorylation of the GCN2 substrate eIF2α) (Q9P2K8 whole entry): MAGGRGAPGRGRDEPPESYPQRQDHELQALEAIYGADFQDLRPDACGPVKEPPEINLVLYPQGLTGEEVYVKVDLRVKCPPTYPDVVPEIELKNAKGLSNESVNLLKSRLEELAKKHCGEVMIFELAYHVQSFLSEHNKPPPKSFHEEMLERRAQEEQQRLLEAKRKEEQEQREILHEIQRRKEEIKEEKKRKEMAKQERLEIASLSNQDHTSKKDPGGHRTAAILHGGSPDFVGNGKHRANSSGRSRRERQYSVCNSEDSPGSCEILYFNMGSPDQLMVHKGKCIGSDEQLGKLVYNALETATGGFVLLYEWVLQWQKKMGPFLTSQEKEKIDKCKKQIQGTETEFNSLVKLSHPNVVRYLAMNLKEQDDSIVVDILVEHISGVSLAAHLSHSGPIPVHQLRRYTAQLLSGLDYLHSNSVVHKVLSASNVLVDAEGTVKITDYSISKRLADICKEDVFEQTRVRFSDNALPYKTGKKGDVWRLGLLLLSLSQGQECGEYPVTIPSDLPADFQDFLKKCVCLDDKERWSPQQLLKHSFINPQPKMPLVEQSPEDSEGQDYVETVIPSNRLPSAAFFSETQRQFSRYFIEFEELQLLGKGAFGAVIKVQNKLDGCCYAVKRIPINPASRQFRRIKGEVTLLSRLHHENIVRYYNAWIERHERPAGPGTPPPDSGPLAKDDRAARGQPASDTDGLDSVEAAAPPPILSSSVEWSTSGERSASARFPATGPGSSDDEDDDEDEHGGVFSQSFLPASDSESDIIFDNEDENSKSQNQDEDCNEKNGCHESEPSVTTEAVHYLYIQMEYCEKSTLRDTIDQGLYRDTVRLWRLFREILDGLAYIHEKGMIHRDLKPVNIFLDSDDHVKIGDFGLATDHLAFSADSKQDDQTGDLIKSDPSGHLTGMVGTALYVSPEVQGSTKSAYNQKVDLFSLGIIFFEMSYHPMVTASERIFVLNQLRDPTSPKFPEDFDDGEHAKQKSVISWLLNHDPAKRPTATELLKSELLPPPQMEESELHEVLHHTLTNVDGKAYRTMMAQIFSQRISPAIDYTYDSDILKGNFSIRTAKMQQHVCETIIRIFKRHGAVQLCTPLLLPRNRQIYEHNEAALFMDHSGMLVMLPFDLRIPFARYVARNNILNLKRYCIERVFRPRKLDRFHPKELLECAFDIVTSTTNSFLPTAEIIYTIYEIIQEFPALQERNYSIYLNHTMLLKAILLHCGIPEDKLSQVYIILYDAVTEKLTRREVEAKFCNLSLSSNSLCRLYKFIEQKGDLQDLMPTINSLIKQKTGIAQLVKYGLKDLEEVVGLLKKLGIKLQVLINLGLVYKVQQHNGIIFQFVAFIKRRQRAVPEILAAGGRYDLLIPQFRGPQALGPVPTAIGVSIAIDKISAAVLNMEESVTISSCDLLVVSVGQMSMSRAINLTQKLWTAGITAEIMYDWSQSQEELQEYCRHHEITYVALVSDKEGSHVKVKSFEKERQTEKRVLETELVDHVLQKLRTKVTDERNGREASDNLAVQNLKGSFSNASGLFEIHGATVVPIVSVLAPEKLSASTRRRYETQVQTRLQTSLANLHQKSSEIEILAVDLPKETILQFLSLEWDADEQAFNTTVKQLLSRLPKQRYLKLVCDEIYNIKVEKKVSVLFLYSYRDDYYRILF
Sequence of GCN2 kinase (Q9P2K8 whole entry): as above

The term IC50 denotes the concentration at which inhibition is half-maximal. High values mean lower potency, low ones higher potency. `CC(=O)N1CCN(c2ccnc(-c3cnc4cnc(C(=O)O)cn34)n2)CC1` [IV-30, 3-(4-(4-Acetylpiperazin-1-yl)pyrimidin-2-yl)imidazo[1,2-a]pyrazine-6-carboxylic acid] yielded an IC50 in assay [1] above 5000 nM. This molecule also returned a Ki on GCN2 kinase of 100 to 1000 nM.

In assay [1], `CC(=O)N1CCN(c2ccnc(-c3cnc4cnc(Br)cn34)n2)CC1` [IV-32, 1-(4-(2-(6-Bromoimidazo[1,2-a]pyrazin-3-yl)pyrimidin-4-yl)piperazin-1-yl)ethan-1-one] returned an IC50 of 500 to 5000 nM. Besides, the Ki on GCN2 kinase lay in the range of 100 to 1000 nM.

For the molecule `CC(=O)N1CCN(c2ccnc(-c3cnc4cnc(C5CC5)cn34)n2)CC1` [IV-33, 1-(4-(2-(6-Cyclopropylimidazo[1,2-a]pyrazin-3-yl)pyrimidin-4-yl)piperazin-1-yl)ethan-1-one], the half-inhibitory concentration (IC50) in assay [1] was above 5000 nM. In addition, the Ki on GCN2 kinase is 100 to 1000 nM.

In assay [1], `CS(=N)(=O)CC1CCCN(c2ccnc(-c3cnc4cnc(C(F)(F)F)cn34)n2)C1` (centres unmarked) [IV-34, Imino(methyl)((1-(2-(6-(trifluoromethyl)imidazo[1,2-a]pyrazin-3-yl)pyrimidin-4-yl)piperidin-3-yl)methyl)-λ^6-sulfanone] came in with a 50% inhibitory concentration (IC50) above 5000 nM. The Ki on GCN2 kinase was in the range of 100 to 1000 nM.

In assay [1], `CC(=O)N1CCN(c2ccnc(-c3cnc4cnc(Cl)cn34)n2)CC1` [IV-35, 1-(4-(2-(6-Chloroimidazo[1,2-a]pyrazin-3-yl)pyrimidin-4-yl)piperazin-1-yl)ethan-1-one] registered an IC50 above 5000 nM. The same molecule registered a Ki at GCN2 kinase of 100 to 1000 nM.

Take `CC(=O)N1CCN(c2ccnc(-c3cnc4cnc(C(N)=O)cn34)n2)CC1` [IV-36, 3-(4-(4-Acetylpiperazin-1-yl)pyrimidin-2-yl)imidazo[1,2-a]pyrazine-6-carboxamide]: the IC50 in assay [1] was above 5000 nM. Moreover, on GCN2 kinase, the Ki was in the range of 100 to 1000 nM.

`C=Cc1cn2c(-c3nccc(N4CCN(C(C)=O)CC4)n3)cnc2cn1` [IV-37, 1-(4-(2-(6-Vinylimidazo[1,2-a]pyrazin-3-yl)pyrimidin-4-yl)piperazin-1-yl)ethan-1-one] registered an IC50 in assay [1] above 5000 nM. For the same molecule, on GCN2 kinase, the Ki fell in the range of 100 to 1000 nM.

Molecule `NC(=O)c1cn2c(-c3nccc(N4CCOC(c5cn[nH]c5)C4)n3)cnc2cn1` (centres unmarked) [IV-38, 3-(4-(2-(1H-Pyrazol-4-yl)morpholino)pyrimidin-2-yl)imidazo[1,2-a]pyrazine-6-carboxamide] showed a concentration for half-maximal inhibition (IC50) in assay [1] above 5000 nM. Also, the Ki on GCN2 kinase lay in the range of 10 to 100 nM.

`c1cn2c(-c3nccc(N4CCOC(c5cn[nH]c5)C4)n3)cnc2cn1` (centres unmarked) [IV-39, 4-(2-(Imidazo[1,2-a]pyrazin-3-yl)pyrimidin-4-yl)-2-(1H-pyrazol-4-yl)morpholine] yielded an IC50 in assay [1] above 5000 nM. The same molecule had a Ki on GCN2 kinase of 100 to 1000 nM.

As to `FC(F)(F)c1cn2c(-c3ccnc(N4CCOC(c5cn[nH]c5)C4)n3)cnc2cn1` (centres unmarked) [IV-40, 2-(1H-Pyrazol-4-yl)-4-(4-(6-(trifluoromethyl)imidazo[1,2-a]pyrazin-3-yl)pyrimidin-2-yl)morpholine], the IC50 in assay [1] is below 500 nM. Besides, the Ki at GCN2 kinase was in the range of 10 to 100 nM.

`NC(=O)NCC1CCCN(c2ccnc(-c3cnc4cnc(C(F)F)cn34)n2)C1` (centres unmarked) [IV-41, 1-((1-(2-(6-(Difluoromethyl)imidazo[1,2-a]pyrazin-3-yl)pyrimidin-4-yl)piperidin-3-yl)methyl)urea] showed an IC50 in assay [1] above 5000 nM. The same molecule displayed a Ki at GCN2 kinase of 100 to 1000 nM.

On to `NC(=O)C1CCCN(c2ccnc(-c3cnc4cnc(C(F)F)cn34)n2)C1` (centres unmarked) [IV-42, 1-(2-(6-(Difluoromethyl)imidazo[1,2-a]pyrazin-3-yl)pyrimidin-4-yl)piperidine-3-carboxamide], for which the IC50 in assay [1] is 500 to 5000 nM. The molecule further had a Ki on GCN2 kinase of 10 to 100 nM.

The molecule `CS(=O)(=O)NCCC1CCCN(c2ccnc(-c3cnc4cnc(C(F)F)cn34)n2)C1` (centres unmarked) [IV-43, N-(2-(1-(2-(6-(Difluoromethyl)imidazo[1,2-a]pyrazin-3-yl)pyrimidin-4-yl)piperidin-3-yl)ethyl)methanesulfonamide] yielded an IC50 in assay [1] above 5000 nM. Moreover, the Ki at GCN2 kinase was 100 to 1000 nM.

As to `CNC(=O)C1CCCN(c2ccnc(-c3cnc4cnc(C(F)F)cn34)n2)C1` (centres unmarked) [IV-44, 1-(2-(6-(Difluoromethyl)imidazo[1,2-a]pyrazin-3-yl)pyrimidin-4-yl)-N-methylpiperidine-3-carboxamide], the IC50 in assay [1] is above 5000 nM. Further, on GCN2 kinase, the Ki was 100 to 1000 nM.

The molecule `NC(=O)CCC1CCCN(c2ccnc(-c3cnc4cnc(C(F)F)cn34)n2)C1` (centres unmarked) [IV-45, 3-(1-(2-(6-(Difluoromethyl)imidazo[1,2-a]pyrazin-3-yl)pyrimidin-4-yl)piperidin-3-yl)propanamide] registered an IC50 in assay [1] above 5000 nM. The molecule further came in with a Ki at GCN2 kinase of 100 to 1000 nM.

Turning to `CC1CN(c2nccc(-c3cnc4cnc(C(F)F)cn34)n2)CC(CNS(C)(=O)=O)C1(F)F` (centres unmarked) [IV-46, N-((1-(4-(6-(Difluoromethyl)imidazo[1,2-a]pyrazin-3-yl)pyrimidin-2-yl)-4,4-difluoro-5-methylpiperidin-3-yl)methyl)methanesulfonamide], the half-inhibitory concentration (IC50) in assay [1] is above 5000 nM. The Ki at GCN2 kinase lay within 100 to 1000 nM.

`NC(=O)C1CN(c2ccnc(-c3cnc4cnc(C(F)F)cn34)n2)CCO1` (centres unmarked) [IV-48, 4-(2-(6-(Difluoromethyl)imidazo[1,2-a]pyrazin-3-yl)pyrimidin-4-yl)morpholine-2-carboxamide] had an IC50 in assay [1] above 5000 nM. Also, at GCN2 kinase, the Ki fell in the range of 100 to 1000 nM.

As to `O=C1CCN(c2ccnc(-c3cnc4cnc(C(F)F)cn34)n2)CCN1` [IV-49, 1-(2-(6-(Difluoromethyl)imidazo[1,2-a]pyrazin-3-yl)pyrimidin-4-yl)-1,4-diazepan-5-one], in assay [1], the 50% inhibitory concentration (IC50) was above 5000 nM. The same molecule came in with a Ki at GCN2 kinase of 100 to 1000 nM.

Take `NC(=O)[C@H]1CCCN(c2ccnc(-c3cnc4cnc(C(F)F)cn34)n2)C1` [IV-50, (S)-1-(2-(6-(Difluoromethyl)imidazo[1,2-a]pyrazin-3-yl)pyrimidin-4-yl)piperidine-3-carboxamide]: in assay [1], the IC50 was in the range of 500 to 5000 nM. Besides, on GCN2 kinase, the Ki lay in the range of 10 to 100 nM.

`FC(F)c1cn2c(-c3nccc(N4CCCC(c5nn[nH]n5)C4)n3)cnc2cn1` (centres unmarked) [IV-51, 3-(4-(3-(2H-Tetrazol-5-yl)piperidin-1-yl)pyrimidin-2-yl)-6-(difluoromethyl)imidazo[1,2-a]pyrazine] displayed a concentration for half-maximal inhibition (IC50) in assay [1] above 5000 nM. For the same molecule, the Ki on GCN2 kinase fell in the range of 100 to 1000 nM.

`FC(F)c1cn2c(-c3nccc(N4CCCC(c5cccnc5)C4)n3)cnc2cn1` (centres unmarked) [IV-52, 6-(Difluoromethyl)-3-(4-(3-(pyridin-3-yl)piperidin-1-yl)pyrimidin-2-yl)imidazo[1,2-a]pyrazine]: the IC50 in assay [1] is above 5000 nM. On GCN2 kinase, the Ki was 100 to 1000 nM.

Take `FC(F)c1cn2c(-c3nccc(N4CCCC(c5c[nH]cn5)C4)n3)cnc2cn1` (centres unmarked) [IV-53, 3-(4-(3-(1H-Imidazol-4-yl)piperidin-1-yl)pyrimidin-2-yl)-6-(difluoromethyl)imidazo[1,2-a]pyrazine]: the IC50 in assay [1] fell in the range of 500 to 5000 nM. Besides, on GCN2 kinase, the Ki was 10 to 100 nM.

For the molecule `CC1C(C(N)=O)CCCN1c1ccnc(-c2cnc3cnc(C(F)F)cn23)n1` (centres unmarked) [IV-54, 1-(2-(6-(Difluoromethyl)imidazo[1,2-a]pyrazin-3-yl)pyrimidin-4-yl)-2-methylpiperidine-3-carboxamide], in assay [1], the half-maximal inhibitory concentration (IC50) lay in the range of 500 to 5000 nM. This molecule also returned a Ki at GCN2 kinase of 10 to 100 nM.

In turn, `NC(=O)C1CCCN(c2cccc(-c3cnc4cnc(C(F)F)cn34)n2)C1` (centres unmarked) [IV-55, 1-(6-(6-(Difluoromethyl)imidazo[1,2-a]pyrazin-3-yl)pyridin-2-yl)piperidine-3-carboxamide] came in with an IC50 in assay [1] of 500 to 5000 nM. On GCN2 kinase, the Ki was in the range of 10 to 100 nM.

With `NS(=O)(=O)C1CCCN(c2ccnc(-c3cnc4cnc(C(F)F)cn34)n2)C1` (centres unmarked) [IV-56, 1-(2-(6-(Difluoromethyl)imidazo[1,2-a]pyrazin-3-yl)pyrimidin-4-yl)piperidine-3-sulfonamide], the IC50 in assay [1] was above 5000 nM. The Ki at GCN2 kinase is 100 to 1000 nM.

`CC1(C(N)=O)CCCN(c2ccnc(-c3cnc4cnc(C(F)F)cn34)n2)C1` (centres unmarked) [IV-57, 1-(2-(6-(Difluoromethyl)imidazo[1,2-a]pyrazin-3-yl)pyrimidin-4-yl)-3-methylpiperidine-3-carboxamide]: the concentration for half-maximal inhibition (IC50) in assay [1] is above 5000 nM. Moreover, the Ki at GCN2 kinase lay in the range of 100 to 1000 nM.

As to `FC(F)c1cn2c(-c3nccc(N4CCCC(c5cn[nH]c5)C4)n3)cnc2cn1` (centres unmarked) [IV-58, 3-(4-(3-(1H-Pyrazol-4-yl)piperidin-1-yl)pyrimidin-2-yl)-6-(difluoromethyl)imidazo[1,2-a]pyrazine], in assay [1], the IC50 is 500 to 5000 nM. Moreover, at GCN2 kinase, the Ki lay within 10 to 100 nM.

`FC(F)(F)c1cn2c(-c3nccc(N4CCCC(c5cn[nH]c5)C4)n3)cnc2cn1` (centres unmarked) [IV-59, 3-(4-(3-(1H-Pyrazol-4-yl)piperidin-1-yl)pyrimidin-2-yl)-6-(trifluoromethyl)imidazo[1,2-a]pyrazine] had an IC50 in assay [1] below 500 nM. The Ki on GCN2 kinase was below 10 nM.

`NC(=O)[C@H]1CCCN(c2ccnc(-c3cnc4cnc(C(F)(F)F)cn34)n2)C1` [IV-60, (S)-1-(2-(6-(Trifluoromethyl)imidazo[1,2-a]pyrazin-3-yl)pyrimidin-4-yl)piperidine-3-carboxamide]: in assay [1], the IC50 is 500 to 5000 nM. Also, at GCN2 kinase, the Ki is below 10 nM.

In assay [1], `CC(NS(C)(=O)=O)C1CN(c2ccnc(-c3cnc4cnc(C(F)F)cn34)n2)CCO1` (centres unmarked) [IV-61, N-(1-(4-(2-(6-(Difluoromethyl)imidazo[1,2-a]pyrazin-3-yl)pyrimidin-4-yl)morpholin-2-yl)ethyl)methanesulfonamide] yielded a 50% inhibitory concentration (IC50) above 5000 nM. Besides, the Ki on GCN2 kinase was in the range of 100 to 1000 nM.

As for `CC(NS(C)(=O)=O)C1CN(c2ccnc(-c3cnc4cnc(C(F)F)cn34)n2)CCO1` (centres unmarked) [IV-62, N-(1-(4-(2-(6-(Difluoromethyl)imidazo[1,2-a]pyrazin-3-yl)pyrimidin-4-yl)morpholin-2-yl)ethyl)methanesulfonamide], the IC50 in assay [1] is above 5000 nM. The same molecule came in with a Ki at GCN2 kinase of 100 to 1000 nM.
